Measured values: patent US20080207711A1, “Method for treating an ID2-related disorder” (priority 2007, published 2008)

Test system: Pkd2−/− mice
Assay: Treatment of pregnant female mice from a Pkd2+/- cross; newborn pups examined for kidney cysts, kidney size, edema and body size
Assay type: in vivo
Protocol: FIG. 1. […] (a) wild-type and (b) Pkd2^−/− kidneys without rosiglitazone treatment. (c) Pkd2^+/− and (d) Pkd2^−/− kidneys with rosiglitazone treatment.
Rosiglitazone, which may inhibit Id2 activity, alleviates the effects of Pkd loss of function mutations. This was shown by treating pregnant female mice from a cross between Pkd2^+/− mice with 80 mg/kg diet/day ciglitazone or rosiglitazone for ten days prior to delivery. […] Similarly, Id2 knockout mice were small. […] In contrast, ciglitazone treatment appeared to have no effect on newborn Pkd2^−/− mice.

[1] = mother treated 80 mg/kg diet/day for ten days prior to delivery

Row | body size of newborn pups [1] | Structure (SMILES) | cyst formation in Pkd2−/− kidneys (FIG. 1, kidneys with vs without treatment) | edema in Pkd2−/− pup [1] | kidney size and morphology of Pkd2−/− pup (mother treated 80 mg/kg diet/day for ten days prior to delivery, compared to Pkd2−/− littermates of untreated mothers) | effect on newborn Pkd2−/− mice [1]
1 | small body size in six of newborn pups | CN(CCOc1ccc(CC2SC(=O)NC2=O)cc1)c1ccccn1 (centres unmarked) [rosiglitazone, 5-[4-[2-(N-methyl-N-(2-pyridyl)amino)ethoxy]benzyl]thiazolidine-2,4-dione] | inhibits cyst formation | no edema | kidneys of normal size and morphology | 
2 |  | CC1(COc2ccc(CC3SC(=O)NC3=O)cc2)CCCCC1 (centres unmarked) [ciglitazone, 5-[4-[(1 methylcyclohexyl)methoxy]benzyl]thiazolidine-2,4-dione] |  |  |  | no effect
